According to patent US11071731B2, “Allosteric modulators of the mu opioid receptor” (Chiromics, LLC, priority 2017, dated 2021):

Legend:
mu opioid receptor (MOR) [1] = target: T1, mu opioid receptor (MOR) (Homo sapiens, UniProt P35372); experiment: PathHunter β-arrestin recruitment assay, PAM mode with EC20 endomorphin-1; assay type: cell-based; conditions: for β-arr Max. Resp.: maximal response for β-arrestin recruitment
Method in brief: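 β-Arrestin recruitment to the receptor was tracked by chemiluminescent β-galactosidase activity from complementing fragments (ED on receptor, EA on β-arrestin). Per-compound outputs were EC50 and percent maximal response.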

mu opioid receptor (MOR) [2] = target: T1, mu opioid receptor (MOR); experiment: Hit Hunter cAMP signaling assay (adenylyl cyclase inhibition), PAM mode with EC20 endomorphin-1; assay type: cell-based; conditions: for cAMP Max. Resp.: maximal response for adenylyl cyclase inhibition
[3] = β-arrestin recruitment, read-out: β-arr. EC50
[4] = cAMP EC50, adenylyl cyclase inhibition
[5] = adenylyl cyclase inhibition, read-out: cAMP EC50

T1 sequence (P35372 whole entry, the tested form may be a part): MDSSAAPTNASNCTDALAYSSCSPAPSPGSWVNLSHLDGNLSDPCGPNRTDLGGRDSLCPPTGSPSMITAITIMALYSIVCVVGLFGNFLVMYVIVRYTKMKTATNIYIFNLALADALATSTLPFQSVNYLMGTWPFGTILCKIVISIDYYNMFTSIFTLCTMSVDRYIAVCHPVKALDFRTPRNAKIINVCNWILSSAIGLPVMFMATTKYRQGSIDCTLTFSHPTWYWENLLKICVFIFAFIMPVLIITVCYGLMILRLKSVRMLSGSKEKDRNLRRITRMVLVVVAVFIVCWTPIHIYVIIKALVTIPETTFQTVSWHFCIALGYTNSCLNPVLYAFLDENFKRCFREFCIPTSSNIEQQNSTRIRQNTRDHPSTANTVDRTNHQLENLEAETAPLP

| SMILES | β-arr Max. Resp. (mu opioid receptor (MOR) [1]) | EC50 (mu opioid receptor (MOR) [1]; [3]) [µM] | EC50 (mu opioid receptor (MOR) [2]; [4]) [µM] | cAMP Max. Resp. (mu opioid receptor (MOR) [2]) | EC50 (mu opioid receptor (MOR) [2]; [5]) [µM] | EC50 (mu opioid receptor (MOR) [2]) [µM] | β-arrestin Max Response (mu opioid receptor (MOR) [1]; β-arrestin recruitment, activity switching by MOR PAMs) | EC50 (mu opioid receptor (MOR) [1]; β-arrestin recruitment, activity switching by MOR PAMs, read-out: β-arrestin EC50) [µM] | cAMP Max Resp. (mu opioid receptor (MOR) [2]; adenylyl cyclase inhibition, activity switching by MOR PAMs) | EC50 (mu opioid receptor (MOR) [2]; adenylyl cyclase inhibition, activity switching by MOR PAMs, read-out: cAMP EC50) [µM] |
| --- | --- | --- | --- | --- | --- | --- | --- | --- | --- | --- |
| Fc1cc(C2CC(F)(F)CCN2c2nc(Cl)ncc2F)cc(C(F)(F)F)c1 (stereo not drawn) [compound 198] | F (F represents a maximal response of > 60%) | 0.7 to 2.1 | 0.7 to 2.1 | F (F represents a maximal response of > 60%) | – | – | – | – | – | – |
| O=S(=O)(c1ccc(Cl)cc1)N1CCCCC1c1cccc(OC(F)(F)F)n1 (racemic) [compound 48] | F (F represents a maximal response of > 60%) | > 2.1 | – | E (E represents a maximal response of 40-60%) | > 2.1 | – | – | – | – | – |
| O=S(=O)(c1ccc(Cl)cc1)N1CCCCC1c1ccc(F)c(Br)c1 (single isomer, unassigned) [compound 56] | F (F represents a maximal response of > 60%) | > 2.1 | – | E (E represents a maximal response of 40-60%) | 0.7 to 2.1 | – | – | – | – | – |
| Fc1cnc(Cl)nc1N1CCCCC1c1cccc(C(F)F)c1 (stereo not drawn) [compound 298] | F (F represents a maximal response of > 60%) | > 2.1 | < 0.7 | F (F represents a maximal response of > 60%) | – | – | – | – | – | – |
| O=S(=O)(c1ccc(Cl)cc1F)N1C2CCC(C2)C1c1ccc(F)c(Br)c1 (stereo not drawn) [Compound 184] | F (F represents a maximal response of > 60%) | > 2.1 | – | D (D represents a maximal response of < 40%) | > 2.1 | – | – | – | – | – |
| Fc1cnc(Cl)nc1N1CCCCC1c1cncc(Cl)c1 (stereo not drawn) [compound 280] | F (F represents a maximal response of > 60%) | – | – | E (E represents a maximal response of 40-60%) | – | > 2.1 | – | – | – | – |
| [2H]C1(c2ccc(F)c(Br)c2)C(F)CCCN1S(=O)(=O)c1cccc(Cl)c1 (stereo not drawn) [Compound 32] | F (F represents a maximal response of > 60%) | – | – | D (D represents a maximal response of < 40%) | – | – | – | – | – | – |
| O=S(=O)(c1ccc(Cl)cc1)N1CCCCC1c1cc(F)cc(C(F)(F)F)c1 (racemic) [compound 72] | F (F represents a maximal response of > 60%) | 0.7 to 2.1 | – | D (D represents a maximal response of < 40%) | < 0.7 | – | F (F represents a maximal response of >60%) | 0.7 to 2.1 | D (D represents a maximal response of < 40%) | < 0.7 |
| Fc1cnc(Cl)nc1N1CCCCC1c1ccc(Cl)c(Br)c1 (single isomer, unassigned) [compound 125] | F (F represents a maximal response of > 60%) | < 0.7 | < 0.7 | F (F represents a maximal response of > 60%) | – | – | – | – | – | – |
| COc1ccc(C2CC(C)CN2S(=O)(=O)c2ccc(Cl)cc2)cc1Br (single isomer, unassigned) [Compound 118] | E (E represents a maximal response of 40-60%) | 0.7 to 2.1 | – | D (D represents a maximal response of < 40%) | > 2.1 | – | – | – | – | – |
| COc1ccc(C2CCCCN2c2cccc(C(F)(F)F)n2)cc1Br (stereo not drawn) [compound 227] | F (F represents a maximal response of > 60%) | > 2.1 | > 2.1 | F (F represents a maximal response of > 60%) | – | – | – | – | – | – |
